{"source": "patent US4334078A", "about": "“Dibenzothiophenes” (Hoffmann-La Roche Inc., priority 1980, dated 1982)", "test_system": "mice", "experiment": "acute toxicity (LD50)", "format": "in vivo", "details": "p.o. in mice"}
{"smiles": "O=C(O)Cc1ccc2c(c1)sc1ccc(Cl)cc12", "note": "[8-chloro-dibenzothiophene-3-acetic acid]", "values": [{"measurement": "LD50", "value": 775, "unit": "mg"}]}
